Measurements as given in patent US11236059B2, “Targeted cytotoxic ratjadone derivatives and conjugates thereof” (HELMHOLTZ-ZENTRUM FUER INFEKTIONSFORSCHUNG GMBH, priority 2017, dated 2022).
Like-named read-outs stand apart in the source and are kept apart here.

Experiments:
CRM1 = molecular target: T1, CRM1 (Homo sapiens, UniProt O14980); assay: Monitoring export inhibitory activity (translocation biosensor, HeLaRevBio cells); assay type: cell-based
T1 construct: HeLa cells stably expressing a fluorescent translocation biosensor (HeLaRevBio); endogenous in cells; host or cells: HeLa (HeLaRevBio in A7; HeLa in A8)
T1 sequence (O14980 whole entry): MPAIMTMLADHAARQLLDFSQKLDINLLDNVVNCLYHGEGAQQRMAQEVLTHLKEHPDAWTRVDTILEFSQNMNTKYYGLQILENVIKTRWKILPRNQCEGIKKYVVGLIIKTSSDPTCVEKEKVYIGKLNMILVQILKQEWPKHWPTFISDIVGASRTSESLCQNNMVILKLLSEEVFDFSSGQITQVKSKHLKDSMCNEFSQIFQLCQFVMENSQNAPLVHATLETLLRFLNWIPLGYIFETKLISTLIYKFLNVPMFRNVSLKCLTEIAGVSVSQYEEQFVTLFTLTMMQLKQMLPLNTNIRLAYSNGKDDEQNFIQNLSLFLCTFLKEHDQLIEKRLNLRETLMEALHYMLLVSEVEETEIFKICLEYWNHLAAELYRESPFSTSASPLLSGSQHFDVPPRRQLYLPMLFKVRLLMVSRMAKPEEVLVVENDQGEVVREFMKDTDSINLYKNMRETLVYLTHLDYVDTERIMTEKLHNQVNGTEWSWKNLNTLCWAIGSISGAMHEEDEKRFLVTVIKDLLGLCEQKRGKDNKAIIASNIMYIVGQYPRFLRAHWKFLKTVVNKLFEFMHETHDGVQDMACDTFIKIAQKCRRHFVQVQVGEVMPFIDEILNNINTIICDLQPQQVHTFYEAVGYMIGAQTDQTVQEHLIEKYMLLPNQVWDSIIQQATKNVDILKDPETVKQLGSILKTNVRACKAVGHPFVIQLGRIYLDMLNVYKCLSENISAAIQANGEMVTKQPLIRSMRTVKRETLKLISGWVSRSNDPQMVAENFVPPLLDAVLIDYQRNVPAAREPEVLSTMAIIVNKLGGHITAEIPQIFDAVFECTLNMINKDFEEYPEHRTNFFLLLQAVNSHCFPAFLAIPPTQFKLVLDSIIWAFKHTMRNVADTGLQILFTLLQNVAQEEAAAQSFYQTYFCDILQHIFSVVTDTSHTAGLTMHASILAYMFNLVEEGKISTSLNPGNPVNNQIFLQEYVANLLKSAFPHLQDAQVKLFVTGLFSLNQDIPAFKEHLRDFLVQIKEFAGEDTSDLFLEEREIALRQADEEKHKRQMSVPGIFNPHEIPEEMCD
Description: Export inhibitory ability of compounds was evaluated with the translocation biosensor system. This cellular assay depends on a recombinantly expressed fusion protein consisting of a nuclear localization signal (SV40-NLS), glutathione S-transferase (GST), green fluorescent protein (GFP) and a nuclear export signal (HIV1-RevNES). Due to the two transport signals (NLS/NES), the biosensor is permanently shuttling between nucleus and cytoplasm but resides prominently in the cytoplasm due to a comparatively stronger NES. Export inhibiting compound induce a nuclear accumulation of the GFP-signal^[65,66] Cell lines were maintained as recommended by the American Type Culture Collection in DMEM containing 5% glutamine (Thermo Fisher Scientific, Waltham, USA) supplemented with 10% FBS (Thermo Fisher Scientific, Waltham, USA). For quantifying the nuclear export inhibitory effect, HeLa cells stably expressing a fluorescent translocation biosensor (HeLaRevBio)^[67] were seeded into black 96 well μclear plates (Greiner, Germany). They next day compounds were added covering an appropriate concentration range. After 1h of incubation, cells were fixed in 4% PFA for 10 min and permeabilized with 0.1% Triton X 100 in PBS for 5 min. After washing with PBS nuclei were labeled with Hoechst H33342 (30 min 10 μg/ml). The intracellular distribution of the biosensor-dependent GFP signal was quantitatively evaluated with the high content imaging system ImageXpress MicroXLS (Molecular Devices, Sunnyvale, USA). By using the translocation enhanced application module (Molecular Devices, Sunnyvale, USA) the GFP-intensity was quantified in the cytoplasm and nuclear region. As final readout the difference of Mean Inner and Mean Outer Intensity was calculated. IC50s of nuclear export inhibition were calculated using Sigma Plot with four parameter logistics curve regression (Systat Software GmbH, Erkrath, Germany). […] The following day compounds were added at 125 nM final concentration.

[1] = test system: SKOV-3 (DSMZ ATCC HTB 77) cells; assay: cells; assay type: cell-based; conditions: Homo sapiens, SK-OV-3, 120 h
Description: (§1) 60 μL of serial dilutions of the test compound were given to 120 μL of suspended cells (50.000/mL) in wells of 96-well plates. After 5 days of incubation growth inhibition (IC50) was determined using an MTT assay.^[64]

[2] = test system: A549 (DSMZ ACC 107) cells; assay: cells; assay type: cell-based; conditions: Homo sapiens, A549, 120 h
Description: as §1

[3] = test system: MCF-7 (DSMZ ACC 115) cells; assay: cells; assay type: cell-based; conditions: Homo sapiens, MCF7, 120 h
Description: as §1

[4] = test system: KB 3.1 (DSMZ ACC 158) cells; assay: cells; conditions: Homo sapiens, KB 3-1, 120 h
[5] = HeLa cells stably expressing translocation biosensor, 1h of incubation, read-out: IC50 [nM] CRM1 (nuclear export inhibition)
[6] = read-out: IC50 [nM] SK-OV-3, growth inhibition, 5 days of incubation, MTT assay
[7] = read-out: IC50 [nM] A-549, growth inhibition, 5 days of incubation, MTT assay
[8] = read-out: IC50 [nM] MCF-7, growth inhibition, 5 days of incubation, MTT assay
[9] = read-out: IC50 [nM] KB-3.1, growth inhibition, 5 days of incubation, MTT assay

SMILES | IC50 (CRM1; [5]) [nM] | IC50 [1, 6] [nM] | IC50 [2, 7] [nM] | IC50 [3, 8] [nM] | IC50 [4, 9] [nM] | IC50 (CRM1) [nM] | IC50 ([1]; growth inhibition, 5 days of incubation, MTT assay, read-out: IC50 [nM] SK-OV-3) [nM] | IC50 ([2]; growth inhibition, 5 days of incubation, MTT assay, read-out: IC50 [nM] A-549) [nM] | IC50 ([3]; growth inhibition, 5 days of incubation, MTT assay, read-out: IC50 [nM] MCF-7) [nM] | IC50 ([4]; read-out: IC50 [nM] KB-3.1) [nM]
C/C=C/[C@@H]1O[C@H]([C@@H](/C=C/C=C(\C)C[C@@H](C)/C=C(C)\C=C\[C@H]2CC=CC(=O)O2)NC(=O)CCSSc2ccccn2)C[C@@H](O)[C@@H]1C [2-PySS(CH2)2(CO)NH-Ratja 35, N-((1R,2E,4E,7R,8Z,10E)-1-((2S,4R,5S,6S)-4-Hydroxy-5-methyl-6-((E)-prop-1-en-1-yl)tetrahydro-2H-pyran-2-yl)-5,7,9-trimethyl-11-((R)-6-oxo-3,6-dihydro-2H-pyran-2-yl)undeca-2,4,8,10-tetraen-1-yl)-3-(pyridin-2-yldisulfaneyl)propanamide] | 44.1 | 24.6 | 30.6 | 26 | 8.8 |  |  |  |  | 
C/C=C/[C@@H]1O[C@H](C(=O)/C=C/C=C(\C)C[C@@H](C)/C=C(C)\C=C\[C@H]2CC=CC(=O)O2)CC(=O)[C@@H]1C [16,19-Dioxo-Ratjadone 10, (R)-6-((R,1E,3Z,7E,9E)-3,5,7-trimethyl-11-((2S,5R,6S)-5-methyl-4-oxo-6-((E)-prop-1-en-1-yl)tetrahydro-2H-pyran-2-yl)-11-oxoundeca-1,3,7,9-tetraen-1-yl)-5,6-dihydro-2H-pyran-2-one] | 17.5 | 1.59 | 9.72 | 2.87 | 3.98 |  |  |  |  | 
C/C=C/[C@@H]1O[C@H]([C@H](/C=C/C=C(\C)C[C@@H](C)/C=C(C)\C=C\[C@H]2CC=CC(=O)O2)NC(=O)OC)C[C@@H](O)[C@@H]1C [16R-Amino-Ratjadone methyl carbamate 19, methyl ((1S,2E,4E,7R,8Z,10E)-1-((2S,4R,5S,6S)-4-hydroxy-5-methyl-6-((E)-prop-1-en-1-yl)tetrahydro-2H-pyran-2-yl)-5,7,9-trimethyl-11-((R)-6-oxo-3,6-dihydro-2H-pyran-2-yl)undeca-2,4,8,10-tetraen-1-yl)carbamate] |  |  |  |  | 2.53 | 12.5 |  |  |  | 
C/C=C/[C@@H]1O[C@H]([C@@H](/C=C/C=C(\C)C[C@@H](C)/C=C(C)\C=C\[C@H]2CC=CC(=O)O2)NC(=O)OC)C[C@@H](O)[C@@H]1C [16S-Amino-Ratjadone methyl carbamate 20, methyl ((1R,2E,4E,7R,8Z,10E)-1-((2S,4R,5S,6S)-4-hydroxy-5-methyl-6-((E)-prop-1-en-1-yl)tetrahydro-2H-pyran-2-yl)-5,7,9-trimethyl-11-((R)-6-oxo-3,6-dihydro-2H-pyran-2-yl)undeca-2,4,8,10-tetraen-1-yl)carbamate] |  |  |  |  | 8.18 | 23.5 |  |  |  | 
C/C=C/[C@@H]1O[C@H]([C@@H](/C=C/C=C(\C)C[C@@H](C)/C=C(C)\C=C\[C@H]2CC=CC(=O)O2)NC(=O)OCc2ccc(NC(=O)[C@H](CCCNC(N)=O)NC(=O)[C@@H](NC(=O)OC[C@@H]3[C@@H]4CCC#CCC[C@@H]43)C(C)C)cc2)C[C@@H](O)[C@@H]1C [BCN—O(CO)HN-Val-Cit-PABO(CO)NH-Ratja 31, ((1R,8S,9s)-bicyclo[6.1.0]non-4-yn-9-yl)methyl ((S)-1-(((S)-1-((4-(((((1R,2E,4E,7R,8Z,10E)-1-((2S,4R,5S,6S)-4-hydroxy-5-methyl-6-((E)-prop-1-en-1-yl)tetrahydro-2H-pyran-2-yl)-5,7,9-trimethyl-11-((R)-6-oxo-3,6-dihydro-2H-pyran-2-yl)undeca-2,4,8,10-tetraen-1-yl)carbamoyl)oxy)methyl)phenyl)amino)-1-oxo-5-ureidopentan-2-yl)amino)-3-methyl-1-oxobutan-2-yl)carbamate] |  | 34.7 | 39.5 | 20.2 | 25.1 | 346 |  |  |  | 
C#CCCOC(=O)N[C@H](C(=O)N[C@@H](CCCNC(N)=O)C(=O)Nc1ccc(COC(=O)N[C@H](/C=C/C=C(\C)C[C@@H](C)/C=C(C)\C=C\[C@H]2CC=CC(=O)O2)[C@@H]2C[C@@H](O)[C@H](C)[C@H](/C=C/C)O2)cc1)C(C)C [But-3-yn-1-yl ((S)-1-(((S)-1-((4-(((((1R,2E,4E,7R,8Z,10E)-1-((2S,4R,5S,6S)-4-hydroxy-5-methyl-6-((E)-prop-1-en-1-yl)tetrahydro-2H-pyran-2-yl)-5,7,9-trimethyl-11-((R)-6-oxo-3,6-dihydro-2H-pyran-2-yl)undeca-2,4,8,10-tetraen-1-yl)carbamoyl)-oxy)methyl)phenyl)amino)-1-oxo-5-ureidopentan-2-yl)amino)-3-methyl-1-oxobutan-2-yl)carbamate] |  |  |  |  |  |  | 13.6 | 25.1 | 12.5 | 9.2
C#CCCC(=O)N[C@H](/C=C/C=C(\C)C[C@@H](C)/C=C(C)\C=C\[C@H]1CC=CC(=O)O1)[C@@H]1C[C@@H](O)[C@H](C)[C@H](/C=C/C)O1 [Compound 22, N-((1R,2E,4E,7R,8Z,10E)-1-((2S,4R,5S,6S)-4-hydroxy-5-methyl-6-((E)-prop-1-en-1-yl)tetrahydro-2H-pyran-2-yl)-5,7,9-trimethyl-11-((R)-6-oxo-3,6-dihydro-2H-pyran-2-yl)undeca-2,4,8,10-tetraen-1-yl)pent-4-ynamide] | 23.2 | 0.44 | 0.58 | 0.4 | 1.05 |  |  |  |  | 
C#CCCOC(=O)N[C@H](/C=C/C=C(\C)C[C@@H](C)/C=C(C)\C=C\[C@H]1CC=CC(=O)O1)[C@@H]1C[C@@H](O)[C@H](C)[C@H](/C=C/C)O1 [Compound 24, But-3-yn-1-yl ((1R,2E,4E,7R,8Z,10E)-1-((2S,4R,5S,6S)-4-hydroxy-5-methyl-6-((E)-prop-1-en-1-yl)tetrahydro-2H-pyran-2-yl)-5,7,9-trimethyl-11-((R)-6-oxo-3,6-dihydro-2H-pyran-2-yl)undeca-2,4,8,10-tetraen-1-yl)carbamate] | 46.1 | 0.45 | 1.25 | 0.27 | 0.47 |  |  |  |  | 
C#CCCOC(=O)N[C@@H](/C=C/C=C(\C)C[C@@H](C)/C=C(C)\C=C\[C@H]1CC=CC(=O)O1)[C@@H]1C[C@@H](O)[C@H](C)[C@H](/C=C/C)O1 [Compound 25, But-3-yn-1-yl ((1S,2E,4E,7R,8Z,10E)-1-((2S,4R,5S,6S)-4-hydroxy-5-methyl-6-((E)-prop-1-en-1-yl)tetrahydro-2H-pyran-2-yl)-5,7,9-trimethyl-11-((R)-6-oxo-3,6-dihydro-2H-pyran-2-yl)undeca-2,4,8,10-tetraen-1-yl)carbamate] | 12 | 1.2 | 2.45 | 0.62 | 1.23 |  |  |  |  | 
C#CCCC(=O)NCCSSCCC(=O)N[C@H](/C=C/C=C(\C)C[C@@H](C)/C=C(C)\C=C\[C@H]1CC=CC(=O)O1)[C@@H]1C[C@@H](O)[C@H](C)[C@H](/C=C/C)O1 [N-(2-((3-(((1R,2E,4E,7R,8Z,10E)-1-((2S,4R,5S,6S)-4-hydroxy-5-methyl-6-((E)-prop-1-en-1-yl)tetrahydro-2H-pyran-2-yl)-5,7,9-trimethyl-11-((R)-6-oxo-3,6-dihydro-2H-pyran-2-yl)undeca-2,4,8,10-tetraen-1-yl)amino)-3-oxopropyl)disulfaneyl)-ethyl)pent-4-ynamide] |  | 1.09 | 0.86 | 0.17 | 1.86 |  |  |  |  | 
C#CCNC1C[C@@H]([C@H](O)/C=C/C=C(\C)C[C@@H](C)/C=C(C)\C=C\[C@H]2CC=CC(=O)O2)O[C@@H](/C=C/C)[C@H]1C (stereo partly drawn) [N-Propargyl-19-amino-Ratjadone 42, (6R)-6-((1E,3Z,5R,7E,9E,11R)-11-hydroxy-3,5,7-trimethyl-11-((2S,5S,6S)-5-methyl-6-((E)-prop-1-en-1-yl)-4-(prop-2-yn-1-ylamino)tetrahydro-2H-pyran-2-yl)undeca-1,3,7,9-tetraen-1-yl)-5,6-dihydro-2H-pyran-2-one] | 18.3 | 2.63 | 1.12 | 1.31 | 1.23 |  |  |  |  | 
